Data from patent US10058562B2, “Methods of treatment of diseases” (Ampio Pharmaceuticals, Inc., priority 2012, dated 2018).
Like-named read-outs stand apart in the source and are kept apart here. Blank lines part the entries; values can stand above or below the compound they belong to.

How the values were obtained:
[1] = test system: human retinal endothelial cells; test: TER of endothelial cell monolayers (Example 6); conditions: 1.0 μM
Experimental: (§1) Assays were also performed in the same manner using passage 8 human brain endothelial cells and passage 8 human umbilical vein endothelial cells.
(§2) An initial TER measurement was taken for each insert using EVOM^2 voltohmmeter connected to an STX100 electrode (both from World Precision Instruments). […] All data are presented as TER measurements/cm^2 of insert with TER of blank inserts subtracted.

[2] = test system: human retinal endothelial cells; test: ECIS resistance (Example 14); conditions: for persistence of ECIS increase: danazol 1.0 μM, S1P 1 μM, alone or in combination
Experimental: (§3) Electrical resistance was measured using the electric cell-substrate impedance sensing (ECIS) system (ECISZθ, obtained from Applied Biophysics) with 8-well multiple electrode plates (8W10E). […] The fibronectin solution was removed, and 400 μl of EGM-2 culture medium (Lonza) was added to each well. The plates were connected to the ECISZθ system and were electrically stabilized. The EGM-2 medium was aspirated and replaced with 200 μl of EGM-2 culture medium containing 100,000 cells per well. […] The EGM-2 medium was aspirated and replaced with 400 μl of fresh EGM-2 culture medium per well. […] Concentrated solutions of the test compounds in HBSS were prepared and placed in the incubator to equilibrate. […] ECIS (resistance) was monitored for 90 hours.

HUVECs = test: HUVEC tube formation assay; conditions: 18 hours
[3] = test system: Retinal endothelial cells; test: F-actin (phalloidin) staining of endothelial cells; conditions: barrier-enhancing concentrations
Description: Retinal endothelial cells stained with rhodamine conjugated phalloidin.

[4] = test system: human retinal endothelial cells; test: Actin stress fiber formation (Example 13); conditions: for F-actin staining, danazol alone: 1 μM; for F-actin staining, agent alone: TNFα 1 ng/ml or S1P 1 μM alone, over the time course
[5] = test system: human renal glomerular microvascular endothelial cells; test: Actin stress fiber formation (Example 13); conditions: for F-actin staining, danazol alone: 1 μM; for F-actin staining, agent alone: TNFα 1 ng/ml or S1P 1 μM alone, over the time course
[6] = test system: human retinal endothelial cells; test: Actin stress fiber formation, TNFα (Example 9); conditions: 30 minutes
Experimental: Then, the medium was removed and replaced with 200 μl of IMDM medium supplemented with 0.1% fetal bovine serum (all from Lonza), and the cells were cultured under these growth factor and serum starved conditions for one hour to suppress actin polymerization. […] Immediately following addition of these compounds, TNFα (final concentration of 50 ng/ml) was added. […] All wells were then washed two times with 100 μl PBS. The cells were permeabilized using a 0.1% Triton X-100 in PBS for 5 minutes. All wells were then washed two times with 100 μl PBS, and 50 μl of a 1:40 dilution of rhodamine-phalloidin (Invitrogen) in PBS was added to the cells to stain for F-actin and left on the cells for 20 minutes at room temperature. All wells were then washed two times with 100 μl PBS.

[7] = test system: patients with diabetic macular edema (DME); format: in vivo, human
Description: Included were patients with DME and a central subfield retinal thickness of 300 μm or greater. A total of 34 patients constituted the safety set population. The efficacy evaluable population (n=23) was composed of patients from the safety set who completed 80% or greater of study medications at 4 weeks of treatment. The primary endpoint was change in central subfield retinal thickness from baseline to 12 weeks of treatment, and the secondary endpoints were change from baseline in retinal volume and Early Treatment Diabetic Retinopathy Study (ETDRS) best corrected visual acuity (BCVA) at week 12 of treatment. […] All treatments were administered orally twice a day.

[8] = test system: human umbilical vein endothelial cells; test: TER of endothelial cell monolayers (Example 6); conditions: 1.0 μM
Experimental: as §1, §2

[9] = test system: human brain endothelial cells; test: TER of endothelial cell monolayers (Example 6); conditions: 1.0 μM
Experimental: as §1, §2

[10] = test system: human renal glomerular microvascular endothelial cells; test: ECIS resistance (Example 14); conditions: danazol 1 μM alone
Experimental: as §3

[11] = test system: human renal glomerular microvascular endothelial cells; test: ECIS resistance (Example 15); conditions: 1 μM
Experimental: Electrical resistance was measured using the electric cell-substrate impedance sensing (ECIS) system (ECISZθ, obtained from Applied Biophysics) with 8-well multiple electrode plates (8W10E). […] The fibronectin solution was removed, and 200 μl of EGM-2 culture medium (Lonza) was added to each well. The plates were connected to the ECISZθ system and were electrically stabilized. The EGM-2 medium was aspirated and replaced with 200 μl of EGM-2 culture medium containing 40,000 passage 6 cells per well. […] The EGM-2 medium was aspirated and replaced with 200 μl of fresh EGM-2 culture medium per well. […] The EGM-2 medium was aspirated and replaced with 200 μl of fresh EGM-2 culture medium without dexamethasone per well. […] Finally, the EGM-2 medium was aspirated and replaced with 200 μl of fresh EGM-2 culture medium without dexamethasone per well. […] Concentrated solutions of the test compounds in HBSS were prepared and placed in the incubator to equilibrate. […] ECIS (resistance) was monitored for 90 hours.

[12] = test system: Primary human umbilical vein endothelial cells (HUVECs); test: HUVEC cell proliferation (Celltiter 96 AQueous One); format: cell-based
Experimental: Primary human umbilical vein endothelial cells (HUVECs) and EGM-2 growth medium were obtained from Cambrex (Walkersville, Md.). The cells were passaged in medium supplemented with 2% fetal calf serum (FCS) in tissue culture flasks at 37° C. and 5% CO2. Subculturing was performed using trypsin when 60-80% confluence was obtained as specified by the supplier.
Cryopreserved ampoules of passage 2 HUVECs were thawed and plated in 96 well tissue culture plates at 5,000 cells/cm^2. […] . In short, medium was aspirated from each well and the cells were washed with 200 μl […] (HBSS) from Cambrex warmed to 37° C. 100 μl diluted celltiter solution (15 μl stock+85 μl EGM-2 containing 0.1% FCS) were added to each well and incubated for an additional 4 hours. Optical density was determined by microplate reader using a 530 nm filter after blank subtraction and data presented as OD±standard deviation. The final concentration of ethanol in the wells was less then 0.2% and had no effect on cell proliferation or viability.
All data are presented as representative experiments done in triplicate. […] P<0.05 was considered statistically significant.

[13] = test system: human retinal endothelial cells; test: Actin stress fiber formation, VEGF (Example 10); format: cell-based; conditions: for change of VEGF stress fiber pattern: 30 minutes before VEGF 25 ng/ml
Experimental: . […] To counter-stain for nuclei, 100 μl of a 3 μM DAPI (4,6-diamidino-2-phenylindole, dilactate (Invitrogen)) solution was added to each well. After 5 minutes, the cells were washed two times with 100 μl PBS.

endothelial cells = test: TEER across endothelial cell monolayers on transwell inserts; conditions: barrier-enhancing concentrations, within minutes of exposure
Description: TEER measured across monolayers of endothelial cells grown on transwell inserts. Higher resistance equals greater barrier integrity.

ocular hypertension ([7]; in vivo): No ocular hypertension was detected
Compound: C#C[C@]1(O)CC[C@H]2[C@@H]3CCC4=Cc5oncc5C[C@]4(C)[C@H]3CC[C@@]21C [Danazol, 17α-pregna-2,4-dien-20-yno[2,3-d]-isoxazol-17β-ol]
TER ([1]; 0 Hours, per cm^2 of insert, blank subtracted, None 32.3): 21.7 | TER ([1]; 24 Hours, None 96.0): 132.3 | TER ([1]; 48 Hours, None 144.4): 182.3 | TER ([1]; 72 Hours, None 148.0): 217.7 | TER ([1]; 144 Hours, None 219.7): 234.8 | start of ECIS increase compared to untreated cells, after treatment ([2]; 1.0 μM): 1.5 to 2.0 h | persistence of ECIS increase [2]: 5 h | effect on tube formation (HUVECs; 1 μM): no effect | effect on tube formation (HUVECs; 10 μM): no effect | F-actin staining ([3]; within minutes of exposure): f-actin cortical ring formation | stress fiber formation upon stimulation ([3]; stimulation with TNF-a or thrombin): counteracted the formation of stress fibers | F-actin staining, danazol alone ([4]; 15 minutes): perinuclear staining | F-actin staining, danazol alone ([4]; 3 hours): diffuse staining throughout the cells with ruffled edges on many of the cells | F-actin staining, danazol alone ([4]; 24 hours): staining similar to untreated controls | F-actin staining, danazol alone ([5]; 15 minutes): perinuclear staining | F-actin staining, danazol alone ([5]; 3 hours): diffuse staining throughout the cells with ruffled edges on many of the cells | F-actin staining, danazol alone ([5]; 24 hours): staining similar to untreated controls | F-actin staining pattern ([6]; 10.0 μM): stress fibers with multiple focal points were detected | stress fiber development with TNFα ([6]; TNFα 50 ng/ml, danazol 0.1 μM or 10 μM, LY294002 10 μM): decreased the number of cells exhibiting stress fiber development with TNFα | effect on retinal thickness versus baseline BMI ([7]; 10 mg dose): became less significant with increasing baseline BMI | effect on retinal thickness versus baseline BMI ([7]; 30 mg danazol dose): became more significant with increasing baseline BMI | patients with a clinically relevant change in OCT after 12 weeks of treatment ([7]; 30 mg danazol, placebo 2 of 7 patients): 6/7 | Retinal volume compared with placebo ([7]; 15-mg group, P=0.05): decreased | subjects with a significant decrease in retinal thickness (more than 11%) at 12 weeks ([7]; DME patients, oral 15-mg dose (15 mg twice daily), 6 of 7 patients, placebo 29%): 86% | subjects with BCVA improvement of at least 1 category (ICD-9-CM vision loss) ([7]; all patients treated with danazol, placebo 14%): 47% | treatment-related adverse events (number) ([7]; in vivo): Three | TER ([8]; 0 Hours, per cm^2 of insert, blank subtracted, None 82.3): 70.2 | TER ([8]; 24 Hours, None 217.2): 246.0 | TER ([8]; 48 Hours, None 276.3): 364.1 | TER ([8]; 72 Hours, None 226.8): 270.7 | TER ([8]; 144 Hours, None 227.3): 286.4 | TER ([9]; 0 Hours, per cm^2 of insert, blank subtracted, None 41.4): 32.3 | TER ([9]; 24 Hours, None 115.7): 139.9 | TER ([9]; 48 Hours, None 176.3): 188.4 | TER ([9]; 72 Hours, None 154.0): 149.5 | TER ([9]; 144 Hours, None 151.5): 125.8 | period of greatest ECIS increase [10]: 60 to 90 h | persistence of ECIS increase [11]: about 90 hours | start of ECIS increase compared to untreated cells ([11]; medium without dexamethasone): about 3 hours | OD (celltiter proliferation assay) ([12]; 24 hours, 10 μM, nil 0.414±0.06): 0.288±0.037 | OD (celltiter proliferation assay) ([12]; 24 hours, 100 μM, nil 0.414±0.06): 0.162±0.017 | OD (celltiter proliferation assay) ([12]; 48 hours, 1 μM, nil 0.629±0.095): 0.378±0.037 | OD (celltiter proliferation assay) ([12]; 48 hours, 10 μM, nil 0.629±0.095): 0.241±0.012 | OD (celltiter proliferation assay) ([12]; 48 hours, 100 μM, nil 0.629±0.095): 0.19±0.033 | OD (celltiter proliferation assay) ([12]; 72 hours, 0.1 μM, nil 1.113±0.054): 0.798±0.037 | OD (celltiter proliferation assay) ([12]; 72 hours, 1 μM, nil 1.113±0.054): 0.484±0.022 | OD (celltiter proliferation assay) ([12]; 72 hours, 10 μM, nil 1.113±0.054): 0.229±0.016 | OD (celltiter proliferation assay) ([12]; 72 hours, 100 μM, nil 1.113±0.054): 0.156±0.018 | change of VEGF stress fiber pattern ([13]; 0.1 μM): made the stress fibers less pronounced and some diffuse staining appeared | change of VEGF stress fiber pattern ([13]; 1.0 μM): showed fewer thick stress fibers, but focal points were seen on contact surfaces | change of VEGF stress fiber pattern ([13]; 10.0 μM): showed strong stress fiber development with focal points | F-actin staining pattern ([13]; 10.0 μM, no VEGF): there was no longer any diffuse staining, and stress fiber development and focal points were seen | endothelial barrier function (TEER) (endothelial cells): increases in endothelial barrier function

Compound: CCCCCCCCCCCCC/C=C/[C@@H](O)[C@@H](N)COP(=O)(O)O [S1P, sphingosine-1 phosphate]
start of ECIS increase compared to untreated cells, after treatment ([2]; S1P 1 μM alone): ≤ 0.25 h | persistence of ECIS increase [2]: about 3 hours | F-actin staining, agent alone [4]: showed actin cortical rings | F-actin staining, agent alone [5]: showed actin cortical rings

Compound: TNFα
F-actin staining, agent alone [4]: stress fibers were seen at all times | F-actin staining, agent alone [5]: stress fibers were seen at all times | stress fiber development, stimulus alone ([6]; TNFα 50 ng/ml): led to strong stress fiber development with intensely staining focal points

Compound: VEGF
stress fiber development, stimulus alone ([13]; VEGF 25 ng/ml, 30 minutes): strong stress fiber development
